According to patent EP2607478A1, “Phenanthroline treated MSC” (Universiteit Twente, priority 2011, dated 2013):

Tests used:
[1] = tested on: MSCs; experiment: Protein expression analysis (Luminex assay) of treated MSCs; type: cell-based, Human; conditions: primary MSCs, 2 days; for VEGF secretion / secretion of IL-8: 150 µM DFO or 200 µM PHE, measured in cell lysates; for secretion of IL-8: basic 15-25 pg/mL
Description: MSCs were seeded at 5000 cells/cm^2 in T25 flasks. […] After 2 days, cells were lysed with 250 µL RIPA buffer with addition of protease/phosphatase inhibitors (Roche). Total protein concentrations were determined using a BCA kit (Pierce) and 10 µg of total protein was used to determine concentrations of VEGF, IL-8, basic fibroblast growth factor (bFGF), […] stimulating factor (G-CSF) and epidermal growth factor (EGF) using a Luminex assay (Invitrogen) according to the manufacturer's protocol. Briefly, cells and standards were incubated with fluorescent beads, followed by incubation with a biotinylated detection antibody. After incubation with streptavidin-R-Phycoerythrin and washing, both the fluorescence of the coupled beads and the R-phycoerythrin were measured using a Luminex® FlexMap™.

[2] = tested on: MSCs; experiment: Gene expression analysis by real-time qPCR in treated MSCs; type: cell-based, Human; conditions: for expression of Il-8, VEGF, KDR and Foxc2: 2 days treatment, medium refreshed, 2 more days in basic medium (Figure 8); for VEGF expression: after 2 days of treatment and 2 more days of incubation with fresh medium (Figure 8)
Description: MSCs were seeded in triplicate in 6-well plates at 5000 cells/cm^2 and allowed to attach for 10-15 hours in proliferation medium. Upon reaching near confluency, cells were treated as described above. After 2 days of treatment and 2 subsequent days of incubation with fresh medium, cells were lysed immediately with TRIzol. RNA was isolated using a Bioke RNA II nucleospin RNA isolation kit (Machery Nagel) and RNA concentrations were measured using an ND100 spectrophotometer (Nanodrop technologies, USA). cDNA was synthesized from 100 ng of RNA, using iScript (BioRad) according to the manufacturer's protocol. For qualitative PCR, a master mix, containing distilled water, forward primer, reverse primer (Sigma Genosys), BSA, and SYBR green I mix (all from Invitrogen) was prepared. Real-time qPCR was performed in a Light-Cycler (Roche). Light-Cycler data was analyzed using the fit points method of Light-Cycler software. The baseline was set at the lower log-linear part above baseline noise and the crossing […] (Ct value) was determined. Ct values were normalized to the 18S housekeeping gene and delta Ct (Ct, control ― Ct, sample) was used to calculate the upregulation in gene expression (53).

[3] = tested on: male C57/BL6 mice; experiment: In vivo murine matrigel plug assay; conditions: matrigel plug with DFO (150 uM) or PHE (200 uM), subcutaneous, 7 days, versus PBS
Description: In vivo angiogenesis analysis was performed using a matrigel plug assay in male C57/BL6 mice (age 8 weeks)(Charles River). Growth factor reduced matrigel (0.5 ml) (BD Biosciences) was injected into the subcutaneous space on the dorsal side of mice on both the left and right flank. […] Mice were sacrificed 7 days post-implantation. Matrigel plugs were excised and processed for histological analysis. Paraffin sections (5 um) were stained with Hematoxylin, Phloxine and Saffron (HPS) or anti-CD31 (PECAM, Abcam, Cambridge, UK). Vascular ingrowth was scored in a double blinded fashion and quantified using the following method: every individual section was scored for the degree of ingrowth, using five different categories of ingrowth (1=minimal ingrowth at the border of the plug, 5=capillary ingrowth throughout the total plug), and the mean ingrowth score per group was defined (6 sections per plug, 7 mice per group). The endothelial nature of the infiltrating cells was confirmed by the CD31 staining,
Data was analyzed using one-way ANOVA followed by Tukey's multiple comparison's test (P<0,05). For the analysis of the ingrowth in the matrigel plug statistical analysis was performed using ANOVA and unpaired T test.

[4] = 200 µM PHE, compared to DFO and hypoxia

## CC(=O)N(O)CCCCCNC(=O)CCC(=O)N(O)CCCCCNC(=O)CCC(=O)N(O)CCCCCN [DFO, reference compound]
[1]
  VEGF secretion: 140 pg/mL
  secretion of IL-8: 15 to 25 pg/mL
[2]
  expression of Il-8, VEGF, KDR and Foxc2: returned to basal levels
  VEGF expression: comparable to non-treated cells
[3]
  capillary ingrowth: significantly increased capillary ingrowth

## c1cnc2c(c1)ccc1cccnc12 [PHE, 1, 10-phenanthroline]
[1]
  VEGF secretion: 65 pg/mL
  secretion of IL-8: 300 to 500 pg/mL
[1]; [4]
  secretion of basic fibroblast growth factor (bFGF): reduced
  secretion of growth-colony stimulating factor (G-CSF): reduced
[2]
  expression of Il-8, VEGF, KDR and Foxc2: still significantly increased
  VEGF expression: still highly expressed
[3]
  capillary ingrowth: significantly increased capillary ingrowth
